What all share (type): cell-based
What all share (design): scale not given: the % may be the effect or the level left

For experiment [1], the target named is Macrophage colony-stimulating factor 1 receptor (Homo sapiens) (UniProt P07333). Kind of experiment: Inhibition of CSF1-stimulated human FMS autophosphorylation expressed in growth factor dependent mouse FDC-P1 cells assessed as phosphorylated receptor level at 3.3 uM relative to control by Western blot. In general terms: In western blotting, separated proteins are transferred to a membrane and probed.

Experiment [2] has the same target. Kind of experiment: Inhibition of CSF1-stimulated human FMS autophosphorylation expressed in growth factor dependent mouse FDC-P1 cells assessed as phosphorylated receptor level at 1.1 uM relative to control by Western blot.
Experiment [3] shares this target. Kind of experiment: Inhibition of CSF1-stimulated human FMS autophosphorylation expressed in growth factor dependent mouse FDC-P1 cells assessed as phosphorylated receptor level at 0.11 uM relative to control by Western blot.
Experiment [4] has the same target. Kind of experiment: Inhibition of CSF1-stimulated human FMS autophosphorylation expressed in growth factor dependent mouse FDC-P1 cells assessed as phosphorylated receptor level at 0.33 uM relative to control by Western blot.
For experiment [5] the target is unchanged. Kind of experiment: Inhibition of CSF1-stimulated human FMS autophosphorylation expressed in growth factor dependent mouse FDC-P1 cells assessed as phosphorylated receptor level at 10 uM relative to control by Western blot.
The target is the same in experiment [6]. Kind of experiment: Inhibition of CSF1-stimulated human FMS autophosphorylation expressed in growth factor dependent mouse FDC-P1 cells assessed as phosphorylated receptor level at 500 nM relative to control by Western blot.
The target is the same in experiment [7]. Kind of experiment: Inhibition of CSF1-stimulated human FMS autophosphorylation expressed in growth factor dependent mouse FDC-P1 cells assessed as phosphorylated receptor level at 50 nM relative to control by Western blot.
The target is the same in experiment [8]. Kind of experiment: Inhibition of CSF1-stimulated human FMS autophosphorylation expressed in growth factor dependent mouse FDC-P1 cells assessed as phosphorylated receptor level at 5 nM relative to control by Western blot.
The target is the same in experiment [9]. Kind of experiment: Inhibition of CSF1-stimulated human FMS autophosphorylation expressed in growth factor dependent mouse FDC-P1 cells assessed as phosphorylated receptor level at 1 nM relative to control by Western blot.
Experiment [10] has the same target. Kind of experiment: Inhibition of CSF1-stimulated human FMS autophosphorylation expressed in growth factor dependent mouse FDC-P1 cells assessed as phosphorylated receptor level at 31 nM relative to control by Western blot.

Macrophage colony-stimulating factor 1 receptor (Homo sapiens), sequence (P07333 whole entry): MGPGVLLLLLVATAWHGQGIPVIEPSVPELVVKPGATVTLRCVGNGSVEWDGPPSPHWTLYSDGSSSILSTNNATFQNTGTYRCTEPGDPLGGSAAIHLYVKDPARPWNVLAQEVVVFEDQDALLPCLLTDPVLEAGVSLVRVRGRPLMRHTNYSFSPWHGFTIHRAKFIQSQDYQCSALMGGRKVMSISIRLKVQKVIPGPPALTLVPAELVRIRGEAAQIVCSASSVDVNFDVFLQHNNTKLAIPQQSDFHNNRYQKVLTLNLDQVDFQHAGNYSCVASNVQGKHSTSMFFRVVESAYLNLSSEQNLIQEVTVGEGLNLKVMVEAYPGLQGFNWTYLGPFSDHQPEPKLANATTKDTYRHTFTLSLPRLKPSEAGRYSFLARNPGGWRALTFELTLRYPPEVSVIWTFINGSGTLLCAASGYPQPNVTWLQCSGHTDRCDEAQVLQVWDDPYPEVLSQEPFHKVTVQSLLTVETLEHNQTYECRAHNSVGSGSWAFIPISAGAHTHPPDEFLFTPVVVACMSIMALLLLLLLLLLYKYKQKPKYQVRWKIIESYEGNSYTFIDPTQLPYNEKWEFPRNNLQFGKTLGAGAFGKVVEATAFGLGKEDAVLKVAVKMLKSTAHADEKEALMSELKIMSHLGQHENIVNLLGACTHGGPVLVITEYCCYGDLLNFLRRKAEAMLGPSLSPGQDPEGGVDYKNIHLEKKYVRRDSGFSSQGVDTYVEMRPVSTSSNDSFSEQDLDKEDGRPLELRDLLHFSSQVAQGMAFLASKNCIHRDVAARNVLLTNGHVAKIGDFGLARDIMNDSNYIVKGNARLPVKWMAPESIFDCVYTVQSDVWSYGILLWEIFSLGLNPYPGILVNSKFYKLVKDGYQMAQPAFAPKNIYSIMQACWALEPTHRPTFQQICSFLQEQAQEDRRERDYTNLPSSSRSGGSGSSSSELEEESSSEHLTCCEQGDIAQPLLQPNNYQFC

For the compound `CN(C)S(=O)(=O)c1ccc2c(c1)/C(=C/c1cc3c([nH]1)CCCC3)C(=O)N2`, the Activity in experiment [1] worked out at 97%; in [2] it was 104%; in experiment [3] it was 104%; in experiment [4], 109%; in [5], 106%.

In the case of `CO[C@@H]1[C@H](N(C)C(=O)c2ccccc2)C[C@H]2O[C@]1(C)n1c3ccccc3c3c4c(c5c6ccccc6n2c5c31)C(=O)NC4`, the Activity in [6] was determined as 3%; in [7], 21%; in [8], 110%.

`CCN(CC)CCNC(=O)c1c(C)[nH]c(/C=C2\C(=O)Nc3ccc(F)cc32)c1C`: the Activity in experiment [9] was determined as 90%; in experiment [6], 2%; in [10], 37%.

On to `C[C@]12O[C@H](C[C@]1(O)CO)n1c3ccccc3c3c4c(c5c6ccccc6n2c5c31)CNC4=O`, for which, in experiment [9], the Activity was found to be 85%.

(Values after ChEMBL document CHEMBL1157596, “Colony stimulating factor-1 receptor as a target for small molecule inhibitors” (Bioorg Med Chem, 2010).)
